According to ChEMBL document CHEMBL1201862, “PubChem BioAssay data set” (2004):
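Briefly, cells in 96-well plates were exposed to five compound concentrations for 48 h, and endpoints were estimated by linear interpolation. GI50: concentration for 50% inhibition of growth.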 Activity calls are given as the source filed them. No stated cut-off is given here; in the data, active = GI50 up to about 1.1 µM and inactive = higher.

Key:
Assay in all cases: DTP human tumour cell line panel, 48 h
HCC 2998 = tested on: HCC 2998
CAKI-1 = tested on: CAKI-1
MOLT-4 = tested on: MOLT-4
MDA-MB-231 = tested on: MDA-MB-231
BT-549 = tested on: BT-549
SK-MEL-28 = tested on: SK-MEL-28
EKVX = tested on: EKVX
SNB-75 = tested on: SNB-75
A549 = tested on: A549
UACC-257 = tested on: UACC-257
NCI-H23 = tested on: NCI-H23
OVCAR-5 = tested on: OVCAR-5
HCT-116 = tested on: HCT-116
U-251 = tested on: U-251
K562 = tested on: K562
NCI-H522 = tested on: NCI-H522
HCT-15 = tested on: HCT-15
UACC-62 = tested on: UACC-62
Malme-3M = tested on: Malme-3M
RPMI-8226 = tested on: RPMI-8226

SMILES | GI50 (HCC 2998) | GI50 (CAKI-1) | GI50 (MOLT-4) | GI50 (MDA-MB-231) | GI50 (BT-549) | GI50 (SK-MEL-28) | GI50 (EKVX) | GI50 (SNB-75) | GI50 (A549) | GI50 (UACC-257) | GI50 (NCI-H23) | GI50 (OVCAR-5) | GI50 (HCT-116) | GI50 (U-251) | GI50 (K562) | GI50 (NCI-H522) | GI50 (HCT-15) | GI50 (UACC-62) | GI50 (Malme-3M) | GI50 (RPMI-8226)
C=C(C)C(=O)N1c2ccc(OC)cc2CC1C(=O)OCC (configuration not stated) | > 100 µM (inactive) | > 100 µM (inactive) | > 100 µM (inactive) | > 100 µM (inactive) | > 100 µM (inactive) | > 100 µM (inactive) | > 100 µM (inactive) | 45.2 µM (inactive) | > 100 µM (inactive) | > 100 µM (inactive) | > 100 µM (inactive) | > 100 µM (inactive) | > 100 µM (inactive) | > 100 µM (inactive) | > 100 µM (inactive) | > 100 µM (inactive) | > 100 µM | > 100 µM (inactive) |  | 
COc1ccc(N2C(=O)CS(=O)(=O)C2c2cccc(Oc3ccccc3)c2)cc1 (configuration not stated) |  | 2.72 µM (inactive) | 3.5 µM (inactive) | 2.69 µM (inactive) | 7.74 µM (inactive) | 16.2 µM (inactive) | 9.91 µM (inactive) | 4.28 µM (inactive) | 6.58 µM (inactive) | 2.74 µM (inactive) | 4.99 µM (inactive) | 7.73 µM (inactive) | 2.17 µM (inactive) | 4.66 µM (inactive) | 1.71 µM (inactive) | 2.62 µM (inactive) | 3.33 µM | 2.21 µM (inactive) | 7.74 µM (inactive) | 
CC(=O)N[C@@H](Cc1ccc(O)cn1)C(=O)NCc1ccc(Cl)cc1 | > 100 µM (inactive) | > 100 µM (inactive) | > 100 µM (inactive) |  | > 100 µM (inactive) | > 100 µM (inactive) | > 100 µM (inactive) |  | > 100 µM (inactive) | 47.5 µM (inactive) | > 100 µM (inactive) | > 100 µM (inactive) | > 100 µM (inactive) | > 100 µM (inactive) | > 100 µM (inactive) | > 100 µM (inactive) | > 100 µM | > 100 µM (inactive) | > 100 µM (inactive) | > 100 µM (inactive)
O=c1[nH]nc(Nc2ccccc2)c2nnn(Cc3ccccc3)c12 | > 100 µM (inactive) | > 100 µM (inactive) | > 100 µM (inactive) | 71.3 µM (inactive) | > 100 µM (inactive) | > 100 µM (inactive) | > 100 µM (inactive) | 18.7 µM (inactive) | > 100 µM (inactive) | > 100 µM (inactive) | > 100 µM (inactive) | > 100 µM (inactive) | 83.9 µM (inactive) | 30.7 µM (inactive) | > 100 µM (inactive) | > 100 µM (inactive) | > 100 µM | > 100 µM (inactive) |  | 
CCN1C2=NCCN2S(=O)(=O)c2ccccc21 | > 100 µM (inactive) | > 100 µM (inactive) | > 100 µM (inactive) | > 100 µM (inactive) | > 100 µM (inactive) | > 100 µM (inactive) | > 100 µM (inactive) |  | > 100 µM (inactive) | > 100 µM (inactive) | > 100 µM (inactive) | > 100 µM (inactive) | > 100 µM (inactive) | > 100 µM (inactive) | > 100 µM (inactive) | 59 µM (inactive) | > 100 µM | > 100 µM (inactive) |  | 
CCSCC(N)C(=O)O (configuration not stated) |  | > 100 µM (inactive) |  | > 100 µM (inactive) | > 100 µM (inactive) | > 100 µM (inactive) | > 100 µM (inactive) | > 100 µM (inactive) | > 100 µM (inactive) | > 100 µM (inactive) | > 100 µM (inactive) | > 100 µM (inactive) | > 100 µM (inactive) | > 100 µM (inactive) |  | > 100 µM (inactive) | > 100 µM | > 100 µM (inactive) | > 100 µM (inactive) | > 100 µM (inactive)
CCOC(=O)c1c(-c2ccc(OC)cc2)ccn1C | > 10 µM (inactive) | > 10 µM (inactive) | > 10 µM (inactive) | > 10 µM (inactive) | > 10 µM (inactive) | 4.54 µM (inactive) | > 10 µM (inactive) | > 10 µM (inactive) | > 10 µM (inactive) | > 10 µM (inactive) | > 10 µM (inactive) | > 10 µM (inactive) | > 10 µM (inactive) | > 10 µM (inactive) | > 10 µM (inactive) | > 9.62 µM (inactive) | > 10 µM | > 10 µM (inactive) | > 10 µM (inactive) | 
Cc1ccc(S(=O)(=O)NC(=O)NC(Cc2ccc(O)cc2)C(=O)O)cc1 (configuration not stated) |  |  | > 100 µM (inactive) | > 100 µM (inactive) | > 100 µM (inactive) | > 100 µM (inactive) |  | > 100 µM (inactive) | > 100 µM (inactive) | > 100 µM (inactive) | > 100 µM (inactive) | > 100 µM (inactive) | > 100 µM (inactive) | > 100 µM (inactive) | > 100 µM (inactive) | > 100 µM (inactive) | > 100 µM |  | > 100 µM (inactive) | > 100 µM (inactive)
COc1cc2nc(-c3cccs3)nc(Nc3cccc([N+](=O)[O-])c3)c2cc1OC |  | 21.9 µM (inactive) | 24.9 µM (inactive) | 18 µM (inactive) | 19.5 µM (inactive) | 23.7 µM (inactive) | 15.3 µM (inactive) | 29 µM (inactive) | 21.1 µM (inactive) | 21.6 µM (inactive) | 11 µM (inactive) | 17.8 µM (inactive) | 17.8 µM (inactive) | 17.3 µM (inactive) | 39 µM (inactive) | 17.6 µM (inactive) | 16.5 µM | 16.8 µM (inactive) | 18.9 µM (inactive) | 28.1 µM (inactive)
CC(C)(C)/C(O)=C\c1nc2ccc(C(F)(F)F)cc2[nH]c1=O |  | > 100 µM (inactive) | > 100 µM (inactive) | > 100 µM (inactive) | > 100 µM (inactive) | > 100 µM (inactive) | > 100 µM (inactive) | > 100 µM (inactive) | > 100 µM (inactive) | > 100 µM (inactive) | > 100 µM (inactive) | > 100 µM (inactive) | > 100 µM (inactive) | > 100 µM (inactive) | > 100 µM (inactive) | > 100 µM (inactive) | > 100 µM | > 100 µM (inactive) | > 100 µM (inactive) | > 100 µM (inactive)
CCC(CCN)(CCN)[N+](=O)[O-] |  | > 100 µM (inactive) | > 100 µM (inactive) | > 100 µM (inactive) | > 100 µM (inactive) |  | > 100 µM (inactive) | > 100 µM (inactive) | > 100 µM (inactive) | > 100 µM (inactive) |  | > 100 µM (inactive) | > 100 µM (inactive) | > 100 µM (inactive) | > 100 µM (inactive) | 58.3 µM (inactive) | > 100 µM | > 100 µM (inactive) | > 100 µM (inactive) | > 100 µM (inactive)
O=C1C[C@@H](c2ccccc2)O[C@@H](c2ccccc2)C1 | > 100 µM (inactive) | > 100 µM (inactive) | > 100 µM (inactive) | > 100 µM (inactive) | > 100 µM (inactive) |  | > 100 µM (inactive) | > 100 µM (inactive) | > 100 µM (inactive) | > 100 µM (inactive) | > 100 µM (inactive) | > 100 µM (inactive) | > 100 µM (inactive) | > 100 µM (inactive) | > 100 µM (inactive) |  | > 100 µM | > 100 µM (inactive) | > 100 µM (inactive) | > 100 µM (inactive)
CCOC(=O)/C(=C\NC#N)c1nc2ccccc2[nH]1 | > 100 µM (inactive) | > 100 µM (inactive) | 5.75 µM (inactive) |  | > 100 µM (inactive) | > 100 µM (inactive) | > 100 µM (inactive) | > 100 µM (inactive) | > 100 µM (inactive) | > 100 µM (inactive) | > 100 µM (inactive) | > 100 µM (inactive) | > 100 µM (inactive) |  |  | 68.5 µM (inactive) | 91 µM | 85.1 µM (inactive) | > 100 µM (inactive) | 78.5 µM (inactive)
CCOC(=O)[C@@]12C3C=CC(CC3)[C@]1(C(=O)c1ccccc1)C(=O)C(=O)N2c1ccccc1 (some centres not stated) | > 100 µM (inactive) | > 100 µM (inactive) | > 100 µM (inactive) | > 100 µM (inactive) |  | > 100 µM (inactive) |  |  | > 100 µM (inactive) |  | > 100 µM (inactive) | > 100 µM (inactive) | > 100 µM (inactive) | > 100 µM (inactive) | > 100 µM (inactive) | > 100 µM (inactive) | > 100 µM | 97.3 µM (inactive) | > 100 µM (inactive) | > 100 µM (inactive)
O=S(=O)(O)c1ccc(-c2c3nc(c(-c4ccc(S(=O)(=O)O)cc4)c4ccc([nH]4)c(-c4ccc(S(=O)(=O)O)cc4)c4nc(c(-c5ccc(S(=O)(=O)O)cc5)c5ccc2[nH]5)C=C4)C=C3)cc1 |  | 28.3 µM (inactive) | 3.1 µM (inactive) | 20.9 µM (inactive) | 28 µM (inactive) | 24.1 µM (inactive) |  | > 100 µM (inactive) | 55.6 µM (inactive) | > 100 µM (inactive) | 64.4 µM (inactive) | 53.5 µM (inactive) | > 100 µM (inactive) | 60.5 µM (inactive) | 37.2 µM (inactive) | 47.3 µM (inactive) | 26.4 µM | > 100 µM (inactive) | 32.5 µM (inactive) | 52.8 µM (inactive)
OC(c1ccc(Cl)cc1)(c1ccc(Cl)cc1)c1cncnc1 | > 10 µM (inactive) | 17.6 µM (inactive) | 14.8 µM (inactive) | 18.6 µM (inactive) | 19.2 µM (inactive) | 18.7 µM (inactive) |  | 21.2 µM (inactive) |  | 19.2 µM (inactive) | 26.3 µM (inactive) | 18.9 µM (inactive) | 14.3 µM (inactive) | 19.3 µM (inactive) | 4.5 µM (inactive) |  | 19 µM | 14.8 µM (inactive) | 33.7 µM (inactive) | 27.2 µM (inactive)
